This passage reports IC50 results from patent US8471005B2 (Cephalon, Inc., priority 2008, dated 2013).

Where two headings read alike, the source gives them in different places.

One assay addresses T1, JAK2 (Homo sapiens, UniProt O60674).
T1 construct: host or cells: baculovirus expression system
Put plainly: Recombinant Human JAK2 Kinase Assay (TRF). The format is biochemical. As to conditions: read-out: JAK2 Potency. The method, boiled down: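 Baculovirus-expressed JAK2 (15 ng/ml) phosphorylated a biotinylated 15-mer peptide captured on Neutravidin-coated plates, in 20 mM HEPES pH 7.2 with 0.2 μM ATP, 1 mM MnCl2, 0.1% BSA and 2.5% DMSO. Reaction ran 20 min at room temperature; phosphopeptide was detected by time-resolved fluorescence with Eu-N1-labelled PY100 antibody.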

The next assay deals with T2, ALK (Homo sapiens, UniProt Q9UM73).
T2 construct: host or cells: baculovirus expression system
Nature of the assay: ALK Kinase Assay (ELISA/TRF, PLC-γ substrate). Type of assay: biochemical. As to conditions: read-out: ALK Potency. Summed up: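 PLC-γ coat 10 μg/mL in TBS; ALK 30 ng/ml added to start; 37° C, 15 min; Eu-N1 PT66 antibody detection (TRF). IC50: % inhibition vs log10 [cpd], variable-slope sigmoidal fit.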
In general terms: An ELISA detects its analyte on a solid surface through an enzyme-linked reagent.

Where [1] appears, read: JAK2 kinase inhibition, 0.2 μM ATP.
The mark [2] stands for this setting: ALK kinase inhibition, 1 μM ATP.

T2 sequence (Q9UM73 19-1620): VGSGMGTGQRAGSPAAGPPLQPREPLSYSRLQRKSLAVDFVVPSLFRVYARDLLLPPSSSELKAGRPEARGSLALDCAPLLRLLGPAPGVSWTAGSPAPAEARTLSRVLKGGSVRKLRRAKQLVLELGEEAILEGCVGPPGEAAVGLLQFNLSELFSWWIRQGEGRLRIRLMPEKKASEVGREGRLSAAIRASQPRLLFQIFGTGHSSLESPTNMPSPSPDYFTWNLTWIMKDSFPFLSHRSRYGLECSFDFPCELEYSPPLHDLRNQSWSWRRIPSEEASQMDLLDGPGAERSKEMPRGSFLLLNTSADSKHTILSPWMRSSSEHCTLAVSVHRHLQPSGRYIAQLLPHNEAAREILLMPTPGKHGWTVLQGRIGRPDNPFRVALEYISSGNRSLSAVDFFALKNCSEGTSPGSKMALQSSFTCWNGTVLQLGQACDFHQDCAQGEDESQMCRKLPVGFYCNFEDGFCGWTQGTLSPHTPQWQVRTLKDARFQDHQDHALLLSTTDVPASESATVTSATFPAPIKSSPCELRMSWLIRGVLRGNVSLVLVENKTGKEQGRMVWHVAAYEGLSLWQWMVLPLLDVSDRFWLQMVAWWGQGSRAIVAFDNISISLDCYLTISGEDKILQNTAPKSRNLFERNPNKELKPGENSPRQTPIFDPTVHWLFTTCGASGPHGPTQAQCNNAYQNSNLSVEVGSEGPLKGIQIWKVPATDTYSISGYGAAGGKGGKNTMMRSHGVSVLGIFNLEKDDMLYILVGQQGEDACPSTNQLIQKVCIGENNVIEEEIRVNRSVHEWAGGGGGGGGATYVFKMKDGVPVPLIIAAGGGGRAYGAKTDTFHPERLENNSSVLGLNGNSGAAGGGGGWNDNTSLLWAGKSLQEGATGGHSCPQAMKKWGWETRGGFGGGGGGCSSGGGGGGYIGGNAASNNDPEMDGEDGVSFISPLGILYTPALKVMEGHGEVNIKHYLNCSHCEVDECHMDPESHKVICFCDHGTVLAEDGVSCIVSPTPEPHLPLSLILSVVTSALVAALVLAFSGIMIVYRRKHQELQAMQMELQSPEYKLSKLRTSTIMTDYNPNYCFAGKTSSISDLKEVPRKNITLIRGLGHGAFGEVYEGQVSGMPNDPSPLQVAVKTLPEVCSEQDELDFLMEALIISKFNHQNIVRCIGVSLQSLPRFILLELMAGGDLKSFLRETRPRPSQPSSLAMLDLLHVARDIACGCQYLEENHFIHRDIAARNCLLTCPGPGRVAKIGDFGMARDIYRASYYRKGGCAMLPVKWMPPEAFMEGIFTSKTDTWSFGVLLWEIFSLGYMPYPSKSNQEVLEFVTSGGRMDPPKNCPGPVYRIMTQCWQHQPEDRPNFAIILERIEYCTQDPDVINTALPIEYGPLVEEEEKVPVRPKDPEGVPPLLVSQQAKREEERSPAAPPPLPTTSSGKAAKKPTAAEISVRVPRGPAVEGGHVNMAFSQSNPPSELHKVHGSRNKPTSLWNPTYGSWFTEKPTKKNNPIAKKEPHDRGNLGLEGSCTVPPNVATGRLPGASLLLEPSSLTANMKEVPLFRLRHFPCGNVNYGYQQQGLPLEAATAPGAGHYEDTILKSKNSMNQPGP
T1 sequence (O60674 whole entry): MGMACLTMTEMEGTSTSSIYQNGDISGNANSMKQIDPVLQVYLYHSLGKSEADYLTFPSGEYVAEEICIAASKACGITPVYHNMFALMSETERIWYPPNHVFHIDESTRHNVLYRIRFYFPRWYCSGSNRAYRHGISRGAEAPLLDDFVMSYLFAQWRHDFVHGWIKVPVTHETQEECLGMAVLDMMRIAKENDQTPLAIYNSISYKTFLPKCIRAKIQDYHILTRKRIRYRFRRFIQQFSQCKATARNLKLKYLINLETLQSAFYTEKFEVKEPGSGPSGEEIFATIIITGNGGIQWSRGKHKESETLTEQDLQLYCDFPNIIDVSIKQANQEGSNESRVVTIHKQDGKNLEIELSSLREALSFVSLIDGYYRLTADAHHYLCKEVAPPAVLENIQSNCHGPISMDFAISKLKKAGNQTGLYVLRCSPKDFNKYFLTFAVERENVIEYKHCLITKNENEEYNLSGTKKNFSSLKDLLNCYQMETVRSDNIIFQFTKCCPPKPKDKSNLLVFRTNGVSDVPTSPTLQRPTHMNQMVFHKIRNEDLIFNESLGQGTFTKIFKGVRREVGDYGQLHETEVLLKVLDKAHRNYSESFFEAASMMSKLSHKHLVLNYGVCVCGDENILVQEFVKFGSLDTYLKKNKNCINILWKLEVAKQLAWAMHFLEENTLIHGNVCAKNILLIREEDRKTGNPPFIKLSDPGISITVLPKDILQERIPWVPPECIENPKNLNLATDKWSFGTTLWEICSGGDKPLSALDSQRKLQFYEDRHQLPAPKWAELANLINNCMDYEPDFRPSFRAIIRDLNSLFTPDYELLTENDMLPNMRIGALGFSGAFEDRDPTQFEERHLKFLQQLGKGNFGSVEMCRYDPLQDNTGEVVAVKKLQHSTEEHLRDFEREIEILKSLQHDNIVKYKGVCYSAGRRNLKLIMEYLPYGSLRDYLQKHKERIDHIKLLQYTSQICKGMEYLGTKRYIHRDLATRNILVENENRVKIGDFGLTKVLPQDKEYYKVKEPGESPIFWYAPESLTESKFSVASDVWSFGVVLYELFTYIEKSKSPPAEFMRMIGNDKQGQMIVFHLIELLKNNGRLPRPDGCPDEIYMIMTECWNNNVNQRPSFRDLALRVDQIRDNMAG

`COc1cc(N2CCC(N(C)C)CC2)ccc1Nc1ncc2ccc(-c3ccccc3N(C)S(C)(=O)=O)n2n1` [Example 475, N-(2-{2-[4-(4-Dimethylamino-piperidin-1-yl)-2-methoxy-phenylamino]-pyrrolo[2,1-f][1,2,4]triazin-7-yl}-phenyl)-N-methyl-methanesulfonamide]: the IC50 was 100 to 1000 nM on JAK2 (setting [1]) and below 100 nM at ALK (setting [2]).

As to `CS(=O)(=O)c1cccc(-c2ccc3cnc(Nc4ccc(-c5cccnc5)cc4)nn23)c1` [Example 1087, [7-(3-Methanesulfonyl-phenyl)-pyrrolo[2,1-f][1,2,4]triazin-2-yl]-(4-pyridin-3-yl-phenyl)-amine], the values for the IC50 at JAK2 (setting [1]) and on ALK (setting [2]) were below 100 nM and 1000 to 10000 nM, respectively.

On to `COc1cc2c(cc1Nc1ncc3ccc(-c4cccc5c4OCC5)n3n1)CCN(CCO)CC2` [Example 704, 2-{7-[7-(2,3-Dihydro-benzofuran-7-yl)-pyrrolo[2,1-f][1,2,4]triazin-2-ylamino]-8-methoxy-1,2,4,5-tetrahydro-3-benzazepin-3-yl}-ethanol], for which the IC50 on JAK2 (setting [1]) and on ALK (setting [2]) was below 100 nM each time.

Regarding `COc1cc(C2CCN(CCO)CC2)ccc1Nc1ncc2ccc(-c3cccc4c3OCC4)n2n1` [Example 702, 2-(4-{4-[7-(2,3-Dihydro-benzofuran-7-yl)-pyrrolo[2,1-f][1,2,4]triazin-2-ylamino]-3-methoxy-phenyl}-piperidin-1-yl)-ethanol], the values for the IC50 on JAK2 (setting [1]) and at ALK (setting [2]) were 100 to 1000 nM and below 100 nM, respectively.

For `CC(C)(C)NS(=O)(=O)c1cccc(-c2ccc3cnc(Nc4ccc5c(c4)CN(CC(N)=O)C5)nn23)c1` [Example 927, 2-{5-[7-(3-tert-Butylsulfamoyl-phenyl)-pyrrolo[2,1-f][1,2,4]triazin-2-ylamino]-1,3-dihydro-isoindol-2-yl}-acetamide], the IC50 at JAK2 (setting [1]) was below 100 nM; on ALK (setting [2]), 100 to 1000 nM.

On to `COc1ccc(-c2ccc3cnc(Nc4ccn(CC(=O)N5CCOCC5)n4)nn23)cn1` [Example 1112, 2-{3-[7-(6-Methoxy-pyridin-3-yl)-pyrrolo[2,1-f][1,2,4]triazin-2-ylamino]-pyrazol-1-yl}-1-morpholin-4-yl-ethanone], for which the IC50 on JAK2 (setting [1]) is below 100 nM; at ALK (setting [2]) it was above 10000 nM.

For `CN1CCN(c2ccc(Nc3ncc4cc(-c5ccncc5)cn4n3)cc2)CC1` [Example 1158], the results for the IC50 at JAK2 (setting [1]) and on ALK (setting [2]) were below 100 nM and above 10000 nM, respectively.

Turning to `COc1ccccc1-c1ccc2cnc(Nc3ccc(N4CCN(C)CC4)nc3)nn12` [Example 1108, [7-(2-Methoxy-phenyl)-pyrrolo[2,1-f][1,2,4]triazin-2-yl]-[6-(4-methyl-piperazin-1-yl)-pyridin-3-yl]-amine], the IC50 was below 100 nM at JAK2 (setting [1]) and 100 to 1000 nM at ALK (setting [2]).

Regarding `CN1CCN(c2ccc(Nc3ncc4ccc(-c5ccccc5S(=O)(=O)NC(C)(C)C)n4n3)cc2)CC1` [Example 411], the IC50 on JAK2 (JAK2 Kinase Inhibition) and at ALK (ALK Kinase Inhibition) was below 100 nM each time.

As for `O=C(c1ccc(-c2ccc3cnc(Nc4ccc(N5CCOCC5)cc4)nn23)cc1)N1CCOCC1` [Example 14, Morpholin-4-yl-{4-[2-(4-morpholin-4-yl-phenylamino)-pyrrolo[2,1-f][1,2,4]triazin-7-yl]-phenyl}-methanone], the IC50 at JAK2 (JAK2 Kinase Inhibition) was below 100 nM; at ALK (ALK Kinase Inhibition) it was 100 to 1000 nM.

As for `COc1cc(N2CCCC(N3CCN(C)CC3)C2)ccc1Nc1ncc2ccc(-c3ccccc3OC)n2n1` (single isomer, unassigned) [Example 1442, {2-Methoxy-4-[3-(4-methyl-piperazin-1-yl)-piperidin-1-yl]-phenyl}-[7-(2-methoxy-phenyl)-pyrrolo[2,1-f][1,2,4]triazin-2-yl]-amine], the values for the IC50 at JAK2 (JAK2 Kinase Inhibition) and on ALK (ALK Kinase Inhibition) were 100 to 1000 nM and below 100 nM, respectively.

With `CS(=O)(=O)c1ccc(-c2ccc3cnc(Nc4ccc5nc[nH]c5c4)nn23)cc1` [Example 1304, (3H-Benzimidazol-5-yl)-[7-(4-methanesulfonyl-phenyl)-pyrrolo[2,1-f][1,2,4]triazin-2-yl]-amine], the IC50 is below 100 nM at JAK2 (setting [1]) and 100 to 1000 nM at ALK (setting [2]).

Turning to `CC(C)CCn1cc(-c2ccc3cnc(Nc4cccc(N5CCN(C)CC5)c4)nn23)cn1` [Example 971, {7-[1-(3-Methyl-butyl)-1H-pyrazol-4-yl]-pyrrolo[2,1-f][1,2,4]triazin-2-yl}-[3-(4-methyl-piperazin-1-yl)-phenyl]-amine], the IC50 is below 100 nM at JAK2 (setting [1]) and 1000 to 10000 nM on ALK (setting [2]).

On to `COc1cc(N2CCCN(C)CC2)ccc1Nc1ncc2ccc(-c3ccccc3OC)n2n1` [Example 765, [2-Methoxy-4-(4-methyl-[1,4]diazepan-1-yl)-phenyl]-[7-(2-methoxy-phenyl)-pyrrolo[2,1-f][1,2,4]triazin-2-yl]-amine], for which the IC50 at JAK2 (setting [1]) is 100 to 1000 nM; on ALK (setting [2]), below 100 nM.

Turning to `OCCN1CCN(c2ccc(Nc3ncc4ccc(-c5cccnc5)n4n3)cc2)CC1` [Example 115, 2-{4-[4-(7-Pyridin-3-yl-pyrrolo[2,1-f][1,2,4]triazin-2-ylamino)-phenyl]-piperazin-1-yl}-ethanol], the IC50 on JAK2 (JAK2 Kinase Inhibition) is below 100 nM; at ALK (ALK Kinase Inhibition), 100 to 1000 nM.

In the case of `COc1ccccc1-c1ccc2cnc(Nc3ccc4[nH]ccc4c3)nn12` [Example 170, (1H-Indol-5-yl)-[7-(2-methoxy-phenyl)-pyrrolo[2,1-f][1,2,4]triazin-2-yl]-amine], the IC50 was below 100 nM on JAK2 (JAK2 Kinase Inhibition) and 1000 to 10000 nM at ALK (ALK Kinase Inhibition).

On to `COc1ccccc1-c1ccc2cnc(Nc3ccc4c(c3)NC(=O)C4(C)C)nn12` [Example 656, 6-[7-(2-Methoxy-phenyl)-pyrrolo[2,1-f][1,2,4]triazin-2-ylamino]-3,3-dimethyl-1,3-dihydro-indol-2-one], for which the IC50 is below 100 nM at JAK2 (setting [1]) and 100 to 1000 nM at ALK (setting [2]).

Take `CN(c1ccccc1-c1ccc2cnc(Nc3ccc(N4CCN(CC(N)=O)CC4)c(F)c3)nn12)S(C)(=O)=O` [Example 1422, 2-[4-(2-Fluoro-4-{7-[2-(methanesulfonyl-methyl-amino)-phenyl]-pyrrolo[2,1-f][1,2,4]triazin-2-ylamino}-phenyl)-piperazin-1-yl]-acetamide]: the IC50 is below 100 nM at JAK2 (JAK2 Kinase Inhibition) and 100 to 1000 nM on ALK (ALK Kinase Inhibition).

On to `COc1ccccc1-c1ccc2cnc(Nc3ccc(OCCN4CCOCC4)cc3)nn12` [Example 1101, [7-(2-Methoxy-phenyl)-pyrrolo[2,1-f][1,2,4]triazin-2-yl]-[4-(2-morpholin-4-yl-ethoxy)-phenyl]-amine], for which the IC50 at JAK2 (setting [1]) and on ALK (setting [2]) was below 100 nM each time.

As to `Cc1nc2cc(Nc3ncc4ccc(-c5cccc(S(=O)(=O)NC(C)(C)C)c5)n4n3)ccc2o1` [Example 600, N-tert-Butyl-3-[2-(2-methyl-benzoxazol-5-ylamino)-pyrrolo[2,1-f][1,2,4]triazin-7-yl]-benzenesulfonamide], the IC50 was below 100 nM on JAK2 (setting [1]) and 1000 to 10000 nM on ALK (setting [2]).

Take `CN1CCCC1COc1cccc(Nc2ncc3ccc(-c4cccc(S(=O)(=O)NC(C)(C)C)c4)n3n2)c1` (centres unmarked) [Example 1005, N-tert-Butyl-3-{2-[3-(1-methyl-pyrrolidin-2-ylmethoxy)-phenylamino]-pyrrolo[2,1-f][1,2,4]triazin-7-yl}-benzenesulfonamide]: the IC50 on JAK2 (setting [1]) and at ALK (setting [2]) was below 100 nM each time.

Consider `C[C@@H](O)CN1CCN(c2cccc(Nc3ncc4ccc(-c5cccc(Cl)c5)n4n3)c2)CC1` [Example 215, (R)-1-(4-{3-[7-(3-Chloro-phenyl)-pyrrolo[2,1-f][1,2,4]triazin-2-ylamino]-phenyl}-piperazin-1-yl)-propan-2-ol], for which the IC50 on JAK2 (JAK2 Kinase Inhibition) and on ALK (ALK Kinase Inhibition) was below 100 nM each time.

Take `CN1CCN(C(=O)C2CCN(c3ccc(Nc4ncc5ccc(-c6ccccc6N(C)S(C)(=O)=O)n5n4)cc3)CC2)CC1` [Example 448, N-Methyl-N-[2-(2-{4-[4-(4-methyl-piperazine-1-carbonyl)-piperidin-1-yl]-phenylamino}-pyrrolo[2,1-f][1,2,4]triazin-7-yl)-phenyl]-methanesulfonamide]: the IC50 on JAK2 (JAK2 Kinase Inhibition) and on ALK (ALK Kinase Inhibition) was below 100 nM throughout.

With `COc1ccccc1-c1ccc2cnc(Nc3ccc4c(c3)C(=O)CC3(CCN(C)CC3)O4)nn12` [Example 376], the IC50 is below 100 nM at JAK2 (JAK2 Kinase Inhibition) and 100 to 1000 nM at ALK (ALK Kinase Inhibition).

With `Clc1cccc(-c2ccc3cnc(Nc4ccc5[nH]ccc5c4)nn23)c1` [Example 176, [7-(3-Chloro-phenyl)-pyrrolo[2,1-f][1,2,4]triazin-2-yl]-(1H-indol-5-yl)-amine], the IC50 at JAK2 (JAK2 Kinase Inhibition) is below 100 nM; at ALK (ALK Kinase Inhibition), above 10000 nM.

On to `COc1cc(CN2CCN(C(C)=O)CC2)ccc1Nc1ncc2ccc(-c3ccccc3N(C)S(C)(=O)=O)n2n1` [Example 1240, N-(2-{2-[4-(4-Acetyl-piperazin-1-ylmethyl)-2-methoxy-phenylamino]-pyrrolo[2,1-f][1,2,4]triazin-7-yl}-phenyl)-N-methyl-methanesulfonamide], for which the IC50 is 100 to 1000 nM at JAK2 (setting [1]) and below 100 nM on ALK (setting [2]).

Regarding `CN1C(=O)Cc2cc(Nc3ncc4ccc(-c5cccc(NS(C)(=O)=O)c5)n4n3)ccc21` [Example 361, N-{3-[2-(1-Methyl-2-oxo-2,3-dihydro-1H-indol-5-ylamino)-pyrrolo[2,1-f][1,2,4]triazin-7-yl]-phenyl}-methanesulfonamide], the figures for the IC50 at JAK2 (JAK2 Kinase Inhibition) and at ALK (ALK Kinase Inhibition) were below 100 nM and 100 to 1000 nM, respectively.

In the case of `O=C(c1ccc(Nc2ncc3ccc(-c4cccc(Cl)c4)n3n2)cc1)N1CCOCC1` [Example 316, {4-[7-(3-Chloro-phenyl)-pyrrolo[2,1-f][1,2,4]triazin-2-ylamino]-phenyl}-morpholin-4-yl-methanone], the IC50 on JAK2 (JAK2 Kinase Inhibition) was below 100 nM; at ALK (ALK Kinase Inhibition), 100 to 1000 nM.
